Measured values: patent US6716873B1, “Tocopherol ester compounds” (Yasoo Health Inc., priority 2003, dated 2004)

Key:
MDA-MB-231 cells = assay: Cell growth/viability assay with tetrazolium salt WST-8 (OD 450 nm); conditions: MDA-MB-231 (ER-negative); after 6 days of incubation
Description: Cultures of MDA-MB-231 cells were maintained at 37° C. in minimum essential medium containing 3.7 g of NaHCO3 per liter of water, supplemented with 10% (v/v) Fetal Bovine Serum and 1% Penicillin/Streptomycin (broad spectrum antibiotics). […] The media were equilibrated with a humidified atmosphere of 5% CO2. Stock cultures were seeded at a density of 200×10^3 cells/mL and allowed to multiply to confluence. The cells were grown at 37° C. in a humidified atmosphere containing 5% CO2 and passaged when confluent using 0.25% trypsin.
The same amount of ethanol was added to the control samples. Stock solutions were maintained at 4° C.
Cell viability assays. The first method employs a novel tetrazolium salt, WST-8 [2-methoxy-4-nitrophenyl)-3(4-nitrophenyl)-5-(2,4-disulphophenyl)-2-H-tetrazolium, monosodium salt] which produces a highly water-soluble formazan dye generated by dehydrogenases which are active in living cells in a culture medium. For initial growth assays, cell suspensions (5000 cells/100 μL/well) were dispensed onto 96-well microtiter plates and incubated at 37° C., 5% CO2 for 1-12 days. At distinct time intervals 10 μL of the WST-8 solution was added to each well and allowed to incubate for 2-4 hrs. A yellow formazan dye is developed only in living cells. […] The absorbance at 450 nm was measured using a microplate reader (EMS Reader with dispenser, Genesys Software) with a reference wavelength at 600 nm. […] For both methods, cell suspensions (5000 cells/100 μ□L culture media) were initially inoculated on a 96-well microplate and preincubated in an incubator for 48 hrs to allow attachment 10 μL of the stock solution of each compound was added so that the final concentration was equimolar for each compound corresponding to 10 µg/mL of VES.
Comparison of the effect of the different compounds on absorbance at the appropriate wavelength was made by analysis of variance (ANOVA).
Cells were seeded in triplicate in 96-well plates and incubated for 48 hrs to allow attachment. The different compounds were added at the indicated concentrations and allowed to incubate for an additional 4 days. The indicated incubation time previously was determined in a growth assay ats the time of maximal proliferation rate. Tetrazolium salt WST-8 (10 μL) was added to each well, the cells were allowed to incubate for 2 hours and optical density (OD) measurements of the yellow formazan dye were made at 450 nm.

MCF-7 cells [1] = assay: Cell viability assay, crystal violet staining (OD620 of cell lysates); conditions: for OD620 of the cell lysates (crystal violet) / statistical significance of decrease in cell growth / effect on cell growth compared to control (FIG. 1): MCF-7; for OD620 of the cell lysates (crystal violet): equimolar concentrations corresponding to 10 μg/mL of VES; for statistical significance of decrease in cell growth: Day 7, day of maximal proliferation rate; for effect on cell growth compared to control (FIG. 1): equimolar concentrations
Description: (§1) Experimental media. […] Stock solutions were maintained at 4° C.
Cells were plated in triplicate in 96-well plates and allowed to attaach and reach confluence for 48 hours. On Day 2 test compounds were added at equimolar concentrations corresponding to 10 μg/mL of VES. Cell viability was determined at the specified times by staining with crystal violet and measuring the OD620 of the cell lysates.

MCF-7 cells [2] = assay: Cell growth/viability assay with tetrazolium salt WST-8 (OD 450 nm); conditions: for inhibitory effect on cell viability (FIG. 2), in words: equimolar concentrations, incubation up to 10 days
Description: as §1
Equimolar concentrations of the different compounds were added on day 2 and allowed for incubation for the indicated time period.

[3] = Chemical stability (solid state, organic solvent, aqueous base by 1H NMR); format: physicochemical; conditions: pH=9, room temperature, one day
[4] = Stability in the culture media by TLC
[5] = Day 0, equimolar concentrations, added on day 2
[6] = Day 2, equimolar concentrations
[7] = Day 4, equimolar concentrations
[8] = Day 7, equimolar concentrations
[9] = Day 9, equimolar concentrations
[10] = Day 11, equimolar concentrations

Row | Compound | inhibition of cell growth (MDA-MB-231 cells) | cytotoxic effect on MCF-7 cells (MCF-7 cells [1]; 3.26 μg/mL (equimolar to 10 μg/mL of VES)) | OD620 of the cell lysates (crystal violet) (MCF-7 cells [1]; Day 0, added on Day 2) | OD620 of the cell lysates (crystal violet) (MCF-7 cells [1]; Day 2) | OD620 of the cell lysates (crystal violet) (MCF-7 cells [1]; Day 5) | statistical significance of decrease in cell growth (MCF-7 cells [1]) | OD620 of the cell lysates (crystal violet) (MCF-7 cells [1]; Day 7) | OD620 of the cell lysates (crystal violet) (MCF-7 cells [1]; Day 9) | effect on cell growth compared to control (FIG. 1) (MCF-7 cells [1]) | optical density (OD) of formazan dye at 450 nm (WST-8) (MCF-7 cells [2]; [5]) | optical density (OD) of formazan dye at 450 nm (WST-8) (MCF-7 cells [2]; [6]) | optical density (OD) of formazan dye at 450 nm (WST-8) (MCF-7 cells [2]; [7]) | optical density (OD) of formazan dye at 450 nm (WST-8) (MCF-7 cells [2]; [8]) | optical density (OD) of formazan dye at 450 nm (WST-8) (MCF-7 cells [2]; [9]) | optical density (OD) of formazan dye at 450 nm (WST-8) (MCF-7 cells [2]; [10]) | inhibitory effect on cell viability (FIG. 2), in words (MCF-7 cells [2]) | decomposition of aqueous solution (1H NMR) [3] | stability in the culture media (TLC) [4] | cytotoxicity, in words (MCF-7 cells [2]; concentration equivalent to IC50)
1 | O=c1[nH]cc(F)c(=O)[nH]1 [5-FU, 5-fluorouracil, reference compound] | 31% | – | – | – | – | – | – | – | – | – | – | – | – | – | – | – | – | – | –
2 | O=[Se](=O)([O-])[O-].[Na+].[Na+] [Na Selenate, sodium selenate, reference compound] | – | 100% | 0 | 0.07344 | 0.06117 | statistically significant decrease in cell growth | 0.082 | 0.05411 | – | – | – | – | – | – | – | – | – | – | –
3 | O=C(O)CC([Se]c1ccccc1)C(=O)O (stereo not shown) [PSSA, phenylselanyl-succinic acid] | 31% | – | 0 | 0.3842 | 1.218 | – | 1.693 | 1.495 | no measurable effect compared to control | 0 | 0.9149 | 2.019 | 3.618 | 3.541 | 3.451 | no inhibitory effect over the first 7 days of incubation | less than 5% | stable for more than one weak | –
4 | Cc1c(C)c2c(c(C)c1OC(=O)C(CC(=O)O)[Se]c1ccccc1)CC[C@@](C)(CCC[C@H](C)CCC[C@H](C)CCCC(C)C)O2 (stereo partly drawn) [PSSA-α-Toc, 2-phenylselanyl-succinic acid RRR-α-tocopherol ester] | 65% | – | 0 | 0.325 | 0.9504 | statistically significant decrease in cell growth | 1.227 | 1.162 | inhibited cell growth much more effectively | 0 | 0.7806 | 1.4215 | 2.998 | 2.812 | 2.105 | most potent inhibitory effect throughout the culture period | – | stable for more than one weak | not cytotoxic
5 | Cc1c(C)c2c(c(C)c1OC(=O)CCC(=O)O)CC[C@@](C)(CCC[C@H](C)CCC[C@H](C)CCCC(C)C)O2 [VES, RRR-α-tocopheryl succinate, reference compound] | 44% | – | – | – | – | – | – | – | – | 0 | 0.8005 | 1.439 | 3.311 | 3.427 | 2.99 | inhibited cell growth more effectively during the first 7 days of incubation | – | – | –
